# Values of other authors as cited in patent US20110105453A1, “Superoxide Dismutase Mimics For The Treatment Of Optic Nerve And Retinal Damage” (ALCON, INC., priority 2003, published 2011).
# Tests used:
# [1] = test system: rat ocular ischemia-reperfusion model; settings: intravitreal injections (SOD protein)
# [2] = test system: NADH-coenzyme Q1 reductase; settings: uncouples mitochondrial respiration
# cytochrome c oxidase = settings: uncouples mitochondrial respiration
# [3] = test system: light-induced retinal damage in albino rats
smiles,measurement,setting,value
CNC(=S)NC [dimethylthiourea],functional protection,[1],40%
"NCCc1c[nH]c2c1C(=O)C(=O)C=C2 [T-4,5-D, tryptamine 4,5-dione]",inhibition of NADH-coenzyme Q1 reductase,[2],irreversible inhibition
same,inactivation of tryptophan hydroxylase,tryptophan hydroxylase,irreversibly inactivates
same,inhibition of cytochrome c oxidase,cytochrome c oxidase,irreversible inhibition
"CC1(C)CC(O)CC(C)(C)N1[O] [4-hydroxy-2,2,6,6-tetramethylpiperidine-1-oxyl]",inhibition of light-induced retinal damage,[3],inhibited light-induced retinal damage
